Data published in publication PMC7190706, “A Self-Assembling Lipidic Peptide and Selective Partial V2 Receptor Agonist Inhibits Urine Production” (Scientific Reports, 2020).
pEC50: −log10 of the molar value.

What was measured:
[1] = test system: MDCK cell line; conditions: read-out: EC50 functional activity (fluid secretion); cited from earlier work
[2] = molecular target: T1, V2 receptor (Canis lupus familiaris, UniProt O77808); assay: V2 receptor agonism, cAMP accumulation in MDCK cells (cAMP EIA); type: cell-based, dog
T1 construct: MDCK cells expressing the V2 receptor were cultured; endogenous in cells; host or cells: MDCK cells
T1 sequence (O77808 whole entry): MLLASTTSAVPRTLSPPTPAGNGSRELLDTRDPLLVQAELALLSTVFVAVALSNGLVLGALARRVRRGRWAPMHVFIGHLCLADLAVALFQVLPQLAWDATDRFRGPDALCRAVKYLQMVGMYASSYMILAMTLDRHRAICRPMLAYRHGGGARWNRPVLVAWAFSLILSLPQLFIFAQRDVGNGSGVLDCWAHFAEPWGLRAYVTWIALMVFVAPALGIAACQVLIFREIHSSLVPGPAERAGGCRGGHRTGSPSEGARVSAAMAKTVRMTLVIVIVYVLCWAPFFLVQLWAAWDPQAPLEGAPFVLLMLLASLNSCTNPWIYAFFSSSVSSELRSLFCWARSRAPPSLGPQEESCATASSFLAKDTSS
Description: We thus used the V2 receptor from MDCK cells, V1a receptors from A7r5 cells and OT receptors from rat uterine strips for our receptor activity assays.
MDCK cells expressing the V2 receptor were cultured in Eagle’s Essential Minimum Medium (EMEM) supplemented with foetal bovine serum (FBS, 10% v/v), L-Glutamine (1% v/v) and non-essential amino acids (NEAA 1% v/v). […] The cell culture medium was changed every 2 days. Cells were sub-cultured every 7 days or upon reaching confluence using trypsin/ ethylene diamine tetraacetic acid (EDTA) (0.25%w/v trypsin/ 0.01%w/v EDTA in phosphate buffered saline, 3 mL) solution to dissociate the cells and the cells reseeded at one third of their original density.
The cell culture media was changed daily. On the day of the experiment, the cells were washed with Dulbecco’s phosphate-buffered saline (DPBS) without calcium and magnesium and incubated for 1 hour in cell culture medium with isobutyl methylxanthine (IBMX, 0.5 mM). IBMX is a phosphodiesterase inhibitor that prevents the breakdown of cAMP within the cells; allowing for total quantification of the analyte cAMP. […]
for total quantification of the analyte cAMP. […]
was quantified from the cell lysate (0.1 mL) using a competition based EIA as per the […]
acid (0.1 M, 0.1 mL) and the plates read at 450 nm using an ELx808 microplate reader […]
concentration of cAMP per well was determined from equation 1. […]

[3] = Plasma stability in 30% rat plasma, HPLC; type: in vitro ADME; conditions: 37 °C
[4] = test system: spontaneous uterine contractions; assay: Spontaneous contractions of isolated uterine strips (organ bath); parameters: species or system rat; conditions: METx 41 nM
Description: Female Wistar rats (203–225 g) were killed with CO2 on the day of the experiments. The uterus was excised and dissected into longitudinal strips (0.5 ×1.3–1.4 cm) from the anti-mesometrial side of the mid-portion of horns which contained implantation sites.
The uterine strips were suspended in an organ bath that contained physiological salt solution (PSS, 25 ml: 116 mM NaCl, 4.6 mM KCl, 1.16 mM NaH2PO4.H2O, 1.16 mM MgSO4.7H2O, 21.9 mM NaHCO3, 1.8 mM CaCl2.2H2O, 11.6 mM dextrose, 0.03 mM CaNa2EDTA, pH = […]). The water-jacketed bath was maintained at 36 °C and aerated with a mixture of 95% O2 and 5% CO2. Only one strip from each animal was used. The uterine strip was tied at the bottom end to a fixed metal hook and at the top end to a force displacement transducer (Harvard Instruments, Kent, UK) using a cotton thread. The force displacement transducer was coupled to an amplifier driving a direct writing oscillograph (Universal Oscillograph, Harvard, Kent, UK). A cumulative dose procedure was used and isotonic contractions recorded.
To quantify the effect of METx on spontaneous uterine contractions the myometrial strips from the same uterus as above, but from the opposite horn, were equilibrated for 60 min within the organ bath and then a single dose of DMF applied followed by doses of METx as shown in Table 1 in the Supplementary Information. […]

[5] = molecular target: T2, OT receptor (Rattus norvegicus, UniProt P70536); assay: OT induced contractions of isolated uterine strips (organ bath); conditions: for 1/Rmax of double reciprocal plot (1/R vs 1/[OT]): Rmax = maximum contractile response in cm
T2 construct: OT receptors from rat uterine strips for our receptor activity assays; from tissue; host or cells: uterine strips of female Wistar rats
T2 sequence (P70536 1-388): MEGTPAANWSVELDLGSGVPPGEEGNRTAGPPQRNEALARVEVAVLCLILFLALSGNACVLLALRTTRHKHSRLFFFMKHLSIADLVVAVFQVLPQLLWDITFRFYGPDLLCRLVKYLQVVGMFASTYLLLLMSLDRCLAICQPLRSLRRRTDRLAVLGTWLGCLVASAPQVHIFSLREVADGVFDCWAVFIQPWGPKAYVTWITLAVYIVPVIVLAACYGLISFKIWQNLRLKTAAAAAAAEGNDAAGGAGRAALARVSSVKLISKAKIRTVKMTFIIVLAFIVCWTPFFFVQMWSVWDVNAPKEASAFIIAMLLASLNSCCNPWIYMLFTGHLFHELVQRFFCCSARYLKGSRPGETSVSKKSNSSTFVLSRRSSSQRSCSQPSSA
Text: The uterus was excised and dissected into longitudinal strips (0.5 ×1.3–1.4 cm) from the anti-mesometrial side of the mid-portion of horns which contained implantation sites.
Only one strip from each animal was used. The uterine strip was tied at the bottom end to a fixed metal hook and at the top end to a force displacement transducer (Harvard Instruments, Kent, UK) using a cotton thread. The force displacement transducer was coupled to an amplifier driving a direct writing oscillograph (Universal Oscillograph, Harvard, Kent, UK). A cumulative dose procedure was used and isotonic contractions recorded.
DMF was added as DMF had been used to solubilise METx. […] The mean peak amplitude (MPA) was calculated from Eq. 1.1 MPA=ΣPH/n where PH = peak heights obtained within the 10 minute period immediately after addition of METx, OT or dimethylformamide and n = number of peaks within the same 10 minute period. The frequency of isotonic contractions was also evaluated during the 10 minute period immediately after the addition of METx, OT or dimethylformamide.
The organ bath was not washed out until a maximal response was reached. The MPA was calculated as shown in Equation 1, except that the recordings were done after the addition of each dose of OT and the MPA was calculated over a 5 minute period. To quantify the effect of METx on OT induced contractions, METx (final bath concentration = 0.1, 0.3 or 0.6 µM) was added to the organ bath prior to the addition of OT (Table 2 – Supplementary Information). […] Results were plotted as a percentage of the maximum contraction obtained with KCl against concentration. A double reciprocal plot was used to assess the nature of the receptor antagonism observed.
(1 picture or pasted object on this page, not shown here)

[6] = Spontaneously voided urine volume and osmolality after intravenous injection in healthy rats; type: in vivo; conditions: METx (5: 1) nanoparticle formulation, rat
Description: Male Sprague Dawley rats (220–250 g) were housed five per cage in an air conditioned unit maintained at 20–22 °C and 50–60% humidity, with lighting controlled on a twelve-hour cycle. The lights were switched on at 07:00 and off at 19:00. Animals were allowed free access to standard rodent chow and water. Before experimentation, animals were habituated for 7 days within the unit. Prior to testing animals were acclimatised to the procedure room for 1 hour. Animals were also acclimatised to the metabolic cages for 20 minutes per day for 5 days before the day of experiment. Animals were randomly assigned into one of four groups; untreated, and animals receiving an intravenous injection of 10, 20 or 40 mg kg^−1 of METx as a GCPQ, METx (5: 1) nanoparticle formulation (n = 3) in a dose volume of 0.9 mL. The formulations were freshly prepared on the morning of the experiment as described above and the pH of the formulation adjusted to pH = 7 using sodium hydroxide (1 M). After receiving their METx formulations, animals were placed within individual metabolic cages (Techniplast, Italy) with access to water. Spontaneously voided urine was collected for 4 hours. Urine osmolality was determined by freezing point depression using a Type 5r osmometer (Loser, Germany).

[7] = test system: human V1a receptor; parameters: method as in PMID 22375852; conditions: cited from earlier work
[8] = molecular target: T3, V1a receptor (Rattus norvegicus, UniProt P30560); assay: V1a receptor agonism, IP-1 ELISA in A7r5 cells; type: cell-based
T3 construct: V1a receptors from A7r5 cells; endogenous in cells; host or cells: A7r5 rat smooth muscle cells
T3 sequence (P30560 whole entry): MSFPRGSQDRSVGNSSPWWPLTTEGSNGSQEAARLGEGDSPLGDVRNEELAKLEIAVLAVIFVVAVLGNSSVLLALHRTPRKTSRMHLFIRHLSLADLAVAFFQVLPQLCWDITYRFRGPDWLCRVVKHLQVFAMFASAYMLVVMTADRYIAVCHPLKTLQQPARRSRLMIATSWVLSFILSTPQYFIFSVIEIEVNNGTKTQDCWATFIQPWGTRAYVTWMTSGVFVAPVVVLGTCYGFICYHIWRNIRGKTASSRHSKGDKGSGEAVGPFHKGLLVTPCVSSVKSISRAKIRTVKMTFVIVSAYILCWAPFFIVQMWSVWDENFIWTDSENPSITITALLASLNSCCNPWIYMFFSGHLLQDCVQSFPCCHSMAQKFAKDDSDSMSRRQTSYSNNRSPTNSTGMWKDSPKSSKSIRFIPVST
Text: microplate reader. […] The
hours. […] The cells were
manufacturer’s instructions.

N=C(N)NCCC[C@H](NC(=O)[C@@H]1CCCN1C(=O)[C@@H]1CSSC[C@H](N)C(=O)N[C@@H](Cc2ccc(O)cc2)C(=O)N[C@@H](Cc2ccccc2)C(=O)N[C@@H](CCC(N)=O)C(=O)N[C@@H](CC(N)=O)C(=O)N1)C(=O)NCC(N)=O [AVP, arginine vasopressin, reference compound]
pEC50 [1]: 9.44
concentration at which the maximal cAMP response was seen [2]: 100 nM

CCCCCCCCCCCCCCCC(=O)NCCCC[C@H](NC(=O)CNC(=O)[C@H](CC(C)C)NC(=O)[C@@H]1CCCN1C(=O)[C@@H]1CSSC[C@H](N)C(=O)N[C@@H](Cc2ccc(O)cc2)C(=O)N[C@@H]([C@@H](C)CC)C(=O)N[C@@H](CCC(N)=O)C(=O)N[C@@H](CC(N)=O)C(=O)N1)C(=O)O [METx]
order of stability ([3]; 30% rat plasma): METx, Polymer (1: 5)> METx, Polymer (1: 7)> METx> METx, Polymer (1: 4)
degradation over the 4 hour incubation ([3]; 30% rat plasma, 4 hour): completely degraded
time to complete degradation ([3]; 30% v/v rat plasma): ≤ 60 min
effect on spontaneous uterine contractions [4]: no effect
OT antagonist concentration relative to EC50 at the V2 receptor ([5]; 300 nM versus V2 EC50): 100 fold
effect on OT induced contractions ([5]; 100 nm of inhibitor): not effective in reducing OT induced contractions
shift of the OT dose response curve to the right ([5]; METx 300 nM and 600 nM, amplitude of OT induced contractions, p < 0.05): two orders of magnitude
nature of antagonism at the OT receptor ([5]; from double reciprocal plots): non-competitive antagonist
1/Rmax of double reciprocal plot (1/R vs 1/[OT]) ([5]; inhibitor 100 nM): 0.48
1/Rmax of double reciprocal plot (1/R vs 1/[OT]) ([5]; inhibitor 300 nM): 0.97
1/Rmax of double reciprocal plot (1/R vs 1/[OT]) ([5]; inhibitor 600 nM): 1.33
concentration at which antagonism at the OT receptor starts ([5]; uterine strips): 300 nM
concentration at which the maximal cAMP response was seen [2]: 10 nM
osmolality of the urine ([6]; 20 mg kg^−1 intravenous as GCPQ): increased significantly
urine production ([6]; 40 mg kg^−1 intravenous as GCPQ, 4 hour observation period): no urine at all
spontaneously voided urine volume, dose dependence ([6]; 10, 20 or 40 mg kg^−1 intravenous as GCPQ, 4 hours): dose correlated reduction in urine production

CC[C@H](C)[C@@H]1NC(=O)[C@H](Cc2ccc(O)cc2)NC(=O)[C@@H](N)CSSC[C@@H](C(=O)N2CCC[C@H]2C(=O)N[C@@H](CC(C)C)C(=O)NCC(N)=O)NC(=O)[C@H](CC(N)=O)NC(=O)[C@H](CCC(N)=O)NC1=O [OT, oxytocin, reference compound]
pEC50 [5]: 10.09

desmopressin
pEC50 [1]: 9.15
affinity for the human V1a receptor [7]: does not show any affinity
agonism at the V1a receptor [8]: not an agonist at the V1a receptor
